These are literature values, as cited in patent publication US12138268B2, “Treatment of erectile dysfunction and other indications” (Strategic Science & Technologies, LLC, priority 2009, dated 2024).

Each structure is given as a SMILES string.

One may read the pKa as the pH at which an ionisable group is half protonated. As for `CCCOc1ccc(S(=O)(=O)N2CCN(CCO)CC2)cc1-c1nc2c(CCC)cn(CC)c2c(=O)[nH]1` [mirodenafil], the pKa is given as 6.0.
